# From patent publication US10150751B2 (Merck Sharp & Dohme Corp., priority 2014, dated 2018)
# Assays:
# [1] = target: human orexin-2 receptor (Homo sapiens (Human), UniProt O43614); assay: FLIPR Ca2+ flux assay, hOX2R; type: cell-based; details: CHO cells expressing the human orexin-2 receptor; agonist 70 pM Ala-6,12 orexin-A
# Procedure: The utility of the compounds in accordance with the present invention as orexin receptor OX1R and/or OX2R antagonists may be readily determined without undue experimentation by methodology well known in the art, including the “FLIPR Ca^2+ Flux Assay” (Okumura et al., Biochem. Biophys. Res. Comm. 280:976-981, 2001). In a typical experiment the OX1 and OX2 receptor antagonistic activity of the compounds of the present invention was determined in accordance with the following experimental method. For intracellular calcium measurements, Chinese hamster ovary (CHO) cells expressing the rat orexin-1 receptor or the human orexin-2 receptor, are grown in Iscove's modified DMEM containing 2 mM L-glutamine, […], 1% hypoxanthine-thymidine supplement, 100 U/ml penicillin, 100 μg/ml streptomycin and 10% heat-inactivated fetal calf serum (FCS). The cells are seeded at 20,000 cells/well into Becton-Dickinson black 384-well clear bottom sterile plates coated with poly-D-lysine. All reagents were from GIBCO-Invitrogen Corp. The seeded plates are incubated overnight at 37° C. and 5% CO2. Ala-6,12 human orexin-A as the agonist is prepared as a 1 mM stock solution in 1% bovine serum albumin (BSA) and diluted in assay buffer (HBSS containing 20 mM HEPES, 0.1% BSA and 2.5 mM probenecid, pH7.4) for use in the assay at a final concentration of 70pM. Test compounds are prepared as 10 mM stock solution in DMSO, then diluted in 384-well plates, first in DMSO, then assay buffer. On the day of the assay, cells are washed 3 times with 100 μl assay buffer and then incubated for 60 min (37° C., 5% CO2) in 60 μl assay buffer containing 1 μM Fluo-4AM ester, 0.02% pluronic acid, and 1% BSA. The dye loading solution is then aspirated and cells are washed 3 times with 100 μl assay buffer. 30 μl of that same buffer is left in each well. Within the Fluorescent Imaging Plate Reader (FLIPR, Molecular Devices), test compounds are added to the plate in a volume of 25 μl, incubated for 5 min and finally 25 μl of agonist is added. Fluorescence is measured for each well at 1 second intervals for 5 minutes and the height of each fluorescence peak is compared to the height of the fluorescence peak induced by 70 pM Ala-6,12 orexin-A with buffer in place of antagonist. For each antagonist, IC50 value (the concentration of compound needed to inhibit 50% of the agonist response) is determined. Alternatively, compound potency can be assessed by a radioligand binding assay (described in Bergman et. al. Bioorg. Med. Chem. Lett. 2008, 18, 1425-1430) in which the inhibition constant (Ki) is determined in membranes prepared from CHO cells expressing either the OX1 or OX2 receptor. The intrinsic orexin receptor antagonist activity of a compound which may be used in the present invention may be determined by these assays.
# [2] = target: hOX1R (orexin-1 receptor) (Homo sapiens, UniProt O43613); assay: FLIPR Ca2+ flux assay, hOX1R; type: cell-based; details: CHO cells expressing the orexin-1 receptor (head: hOX1R; method: rat); agonist 70 pM Ala-6,12 orexin-A
# Chain of human orexin-2 receptor (O43614 whole entry): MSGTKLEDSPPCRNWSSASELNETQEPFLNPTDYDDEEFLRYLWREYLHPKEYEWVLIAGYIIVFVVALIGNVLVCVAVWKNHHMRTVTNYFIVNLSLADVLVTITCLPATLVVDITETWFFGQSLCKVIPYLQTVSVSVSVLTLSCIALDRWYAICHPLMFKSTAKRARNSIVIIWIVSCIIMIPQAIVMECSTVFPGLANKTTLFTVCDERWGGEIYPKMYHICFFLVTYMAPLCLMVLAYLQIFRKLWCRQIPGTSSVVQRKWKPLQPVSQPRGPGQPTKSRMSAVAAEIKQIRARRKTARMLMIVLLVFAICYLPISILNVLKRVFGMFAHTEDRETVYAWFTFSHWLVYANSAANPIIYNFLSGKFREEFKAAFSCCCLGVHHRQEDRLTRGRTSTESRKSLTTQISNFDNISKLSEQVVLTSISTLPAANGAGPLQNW
Structure (SMILES),IC50 [1],IC50 [2],hOX2R FLIPR IC50 [1]
"C[C@@H]1C[C@@H](Nc2cc(OCC(F)F)ccn2)CN1C(=O)c1ccccc1C1(C#N)CC1 [Example 2, 1-(2-((2R,4R)-4-((4-(2,2-difluoroethoxy)pyridin-2-yl)amino)-2-methylpyrrolidine-1-carbonyl)phenyl)cyclopropanecarbonitrile]",65.1 nM,10000 nM,–
"C[C@@H]1C[C@@H](Nc2cc(OCC(F)F)ccn2)CN1C(=O)c1ccccc1-n1ncnn1 [Example 3, (2-(2H-tetrazol-2-yl)phenyl)((2R,4R)-4-((4-(2,2-difluoroethoxy)pyridin-2-yl)amino)-2-methylpyrrolidin-1-yl)methanone]",367 nM,> 10000 nM,–
C[C@@H]1C[C@@H](Nc2cc(OCC(F)F)ccn2)CN1C(=O)c1ccsc1-c1ncccn1 [Example 4],520 nM,> 10000 nM,–
C[C@@H]1C[C@@H](Nc2cc(OCC(F)F)ccn2)CN1C(=O)c1ccsc1-n1nccn1 [Example 5],625 nM,> 10000 nM,–
"CCOc1ncccc1C(=O)N1C[C@H](Nc2cc(OCC(F)F)ccn2)C[C@H]1C [Example 6, ((2R,4R)-4-((4-(2,2-difluoroethoxy)pyridin-2-yl)amino)-2-methylpyrrolidin-1-yl)(2-ethoxypyridin-3-yl)methanone]",989 nM,> 10000 nM,–
"C[C@@H]1C[C@@H](Nc2cc(OCC(F)F)ccn2)CN1C(=O)c1cccc2c1CCC2 [Example 7, ((2R,4R)-4-((4-(2,2-difluoroethoxy)pyridin-2-yl)amino)-2-methylpyrrolidin-1-yl)(2,3-dihydro-1H-inden-4-yl)methanone]",2000 nM,> 10000 nM,–
"C[C@@H]1C[C@@H](Nc2cc(C(F)F)ccn2)CN1C(=O)c1ccccc1-n1nccn1 [Example 9, (2-(2H-1,2,3-triazol-2-yl)phenyl)((2R,4R)-4-((4-(difluoromethyl)pyridin-2-yl)amino)-2-methylpyrrolidin-1-yl)methanone]",13.6 nM,1630 nM,–
"C[C@@H]1C[C@@H](Nc2ccc(F)cn2)CN1C(=O)c1ccccc1-n1nccn1 [Example 11, (2-(2H-1,2,3-triazol-2-yl)phenyl)((2R,4R)-4-((5-fluoropyridin-2-yl)amino)-2-methylpyrrolidin-1-yl)methanone]",175 nM,6290 nM,–
"C[C@@H]1C[C@@H](Nc2nccc3ccccc23)CN1C(=O)c1ccccc1-n1nccn1 [Example 12, (2-(2H-1,2,3-triazol-2-yl)phenyl)((2R,4R)-4-(isoquinolin-1-ylamino)-2-methylpyrrolidin-1-yl)methanone]",15.3 nM,257 nM,–
"C[C@@H]1C[C@@H](Nc2cc(C(F)(F)F)ccn2)CN1C(=O)c1ccccc1-n1nccn1 [Example 14, (2-(2H-1,2,3-triazol-2-yl)phenyl)((2R,4R)-2-methyl-4-((4-(trifluoromethyl)pyridin-2-yl)amino)pyrrolidin-1-yl)methanone]",26.3 nM,1090 nM,–
"C[C@@H]1C[C@@H](Nc2cc(Cl)ccn2)CN1C(=O)c1ccccc1-n1nccn1 [Example 15, (2-(2H-1,2,3-triazol-2-yl)phenyl)((2R,4R)-4-((4-chloropyridin-2-yl)amino)-2-methylpyrrolidin-1-yl)methanone]",23.1 nM,1160 nM,–
"Cc1ccnc(N[C@@H]2C[C@@H](C)N(C(=O)c3ccccc3-n3nccn3)C2)c1 [Example 16, (2-(2H-1,2,3-triazol-2-yl)phenyl)((2R,4R)-2-methyl-4-((4-methylpyridin-2-yl)amino)pyrrolidin-1-yl)methanone]",75.9 nM,4070 nM,–
"C[C@@H]1C[C@@H](Nc2cc(F)ccn2)CN1C(=O)c1ccccc1-n1nccn1 [Example 17, (2-(2H-1,2,3-triazol-2-yl)phenyl)((2R,4R)-4-((4-fluoropyridin-2-yl)amino)-2-methylpyrrolidin-1-yl)methanone]",119 nM,> 10000 nM,–
"COc1ccnc(N[C@@H]2C[C@@H](C)N(C(=O)c3ccccc3-n3nccn3)C2)c1C#N [Example 18, 2-(((3R,5R)-1-(2-(2H-1,2,3-triazol-2-yl)benzoyl)-5-methylpyrrolidin-3-yl)amino)-4-methoxynicotinonitrile]",167 nM,> 10000 nM,–
"C[C@@H]1C[C@@H](Nc2cc(C#N)ccn2)CN1C(=O)c1ccccc1-n1nccn1 [Example 19, 2-(((3R,5R)-1-(2-(2H-1,2,3-triazol-2-yl)benzoyl)-5-methylpyrrolidin-3-yl)amino)isonicotinonitrile]",22.9 nM,> 10000 nM,–
"CC(C)Oc1ccnc(N[C@@H]2C[C@@H](C)N(C(=O)c3ccccc3-n3nccn3)C2)c1 [Example 20, (2-(2H-1,2,3-Triazol-2-yl)phenyl)((2R,4R)-4-((4-isopropoxypyridin-2-yl)amino)-2-methylpyrrolidin-1-yl)methanone]",39.8 nM,2800 nM,–
"CCOc1ccnc(N[C@@H]2C[C@@H](C)N(C(=O)c3ccccc3-n3nccn3)C2)c1 [Example 21, (2-(2H-1,2,3-triazol-2-yl)phenyl)((2R,4R)-4-((4-ethoxypyridin-2-yl)amino)-2-methylpyrrolidin-1-yl)methanone]",31.5 nM,3990 nM,–
"C[C@@H]1C[C@@H](N(C)c2cc(C#N)ccn2)CN1C(=O)c1ccccc1-n1nccn1 [Example 23, 2-(((3R,5R)-1-(2-(2H-1,2,3-triazol-2-yl)benzoyl)-5-methylpyrrolidin-3-yl)(methyl)amino)isonicotinonitrile]",–,> 10000 nM,120/5
"COc1ccnc(N[C@@H]2C[C@@H](C)N(C(=O)c3ccccc3C3(C#N)CC3)C2)c1 [Example 24, 1-(2-((2R,4R)-4-((4-Methoxypyridin-2-yl)amino)-2-methylpyrrolidine-1-carbonyl)phenyl)cyclopropanecarbonitrile]",23.9 nM,2720 nM,–
"COc1cccnc1N[C@@H]1C[C@@H](C)N(C(=O)c2ccccc2-n2nccn2)C1 [Example 25, (2-(2H-1,2,3-triazol-2-yl)phenyl)((2R,4R)-4-((3-methoxypyridin-2-yl)amino)-2-methylpyrrolidin-1-yl)methanone]",36.1 nM,3380 nM,–
"C[C@@H]1C[C@@H](Nc2cc(C(F)F)ccn2)CN1C(=O)c1ccsc1-n1nccn1 [Example 27, (2-(2H-1,2,3-Triazol-2-yl)thiophen-3-yl)((2R,4R)-4-((4-(difluoromethyl)pyridin-2-yl)amino)-2-methylpyrrolidin-1-yl)methanone]",67.8 nM,> 10000 nM,–
"C[C@@H]1C[C@@H](Nc2cc(C(F)F)ccn2)CN1C(=O)c1cscc1-n1nccn1 [Example 28, (4-(2H-1,2,3-triazol-2-yl)thiophen-3-yl)((2R,4R)-4-((4-(difluoromethyl)pyridin-2-yl)amino)-2-methylpyrrolidin-1-yl)methanone]",102 nM,> 10000 nM,–
"C[C@@H]1C[C@@H](Nc2cc(C#N)ccn2)CN1C(=O)c1ccccc1-n1ncnn1 [Example 29, 2-(((3R,5R)-1-(2-(2H-tetrazol-2-yl)benzoyl)-5-methylpyrrolidin-3-yl)amino)isonicotinonitrile]",302 nM,> 10000 nM,–
"C[C@@H]1C[C@@H](Nc2cc(C#N)ccn2)CN1C(=O)c1ccccc1-c1ncccn1 [Example 30, 2-(((3R,5R)-5-Methyl-1-(2-(pyrimidin-2-yl)benzoyl)pyrrolidin-3-yl)amino)isonicotinonitrile]",31.1 nM,> 10000 nM,–
"COC(=O)c1c(OC)ccnc1N[C@@H]1C[C@@H](C)N(C(=O)c2ccccc2-n2nccn2)C1 [Example 32, Methyl 2-(((3R,5R)-1-(2-(2H-1,2,3-triazol-2-yl)benzoyl)-5-methylpyrrolidin-3-yl)amino)-4-methoxynicotinate]",29.7 nM,6750 nM,–
"CCOC(=O)c1c(OC)ccnc1N[C@@H]1C[C@@H](C)N(C(=O)c2ccccc2-n2nccn2)C1 [Example 33, Ethyl 2-(((3R,5R)-1-(2-(2H-1,2,3-triazol-2-yl)benzoyl)-5-methylpyrrolidin-3-yl)amino)-4-methoxynicotinate]",31.1 nM,4070 nM,–
